Reference: publication PMC5672931 (British Journal of Cancer, 2017)
Marks after values point to notes of the source that are not given here.

How the values were obtained:
[1] = test system: patients with solid tumours; conditions: weekly study; ref Nemunaitis et al, 2013; cited from earlier work
[2] = test system: patients with advanced malignancies; assay: phase 1 dose escalation: MAD, RP2D and dose-limiting toxicities; assay type: in vivo, human
[3] = test system: Rb phosphorylation and other CDK targets in metastatic melanoma biopsies; assay: CDK targets in paired tumour biopsies; assay type: in vivo, human; conditions: three patients with metastatic melanoma
[4] = test system: PHA-stimulated lymphocytes in whole blood; assay: ex vivo lymphocyte stimulation assay; assay type: cell-based, human
[5] = pharmacokinetics, plasma concentrations by LC-MS/MS; conditions: for half-life / AUC / Cmax / Tmax: human, plasma, intravenous; for AUC / Cmax: mean
[6] = 2-h infusion, 29.6 mg m^−2, n=5
[7] = 2-h infusion, 41.4 mg m^−2, n=6

In the case of `CCc1cnn2c(NCc3ccc[n+]([O-])c3)cc(N3CCCC[C@H]3CCO)nc12` [dinaciclib, Dinaciclib], the “subjects with grade ⩾3 neutropenia” value [1] is given as 10%, the “recommended phase 2 dose (RP2D)” value ([2]; 2-h i.v. infusion every 21 days) is given as 50 mg m^−2 and the “maximum administered dose (MAD)” value ([2]; 2-h infusion) is given as 58 mg m^−2. For the same molecule, the “No of subjects with DLT in cycle 1” value ([2]; 2-hour infusion, 50 mg/m2 (RP2D), 15 subjects treated) was 4 of 15, the “recommended phase 2 dose (RP2D)” value ([2]; 8-h i.v. infusion every 3 weeks) was 7.4 mg m^−2 and the “recommended phase 2 dose (RP2D) / highest safe dose” value ([2]; 24-h i.v. infusion every 3 weeks) was 10.4 mg m^−2. For the same molecule, the “expression of Rb phosphorylated at S795” value [3] was “reduced expression”, the “expression of Rb phosphorylated at T356” value [3] was “reduced expression” and the “expression of Rb phosphorylated at other sites and of total Rb” value [3] was “overall preserved expression”. For the same molecule, the “increases in p27^Kip1 and p53 post-treatment” value [3] was “occurred in two samples”, the “dose achieving reductions to <5% BrdU incorporation” value ([4]; 2-h infusions) was no less than 7.4 mg m^−2 and the “dose reproducibly achieving a sustained PD effect through 8 h” value ([4]; 2-h infusions) was no less than 29.6 mg m^−2. The “plasma concentration at which reductions to <5% BrdU incorporation were observed” value ([4]; 2-h infusions) was roughly 200 ng/mL, the “dose achieving suppression of lymphocyte proliferation” value ([4]; 8-h infusions) was no less than 7.4 mg m^−2 and the “patients with pharmacodynamic reductions in BrdU incorporation” value ([4]; part 1, 2-h infusions) was 24 of 35. The “patients with reduction of PHA-stimulated BrdU incorporation to <5% at at least one post-dose time point” value ([4]; part 1, of the 24 patients with reductions) was 23, the “CL, mean” value ([5]; 2-h infusion, 1.85 mg m^−2, n=1) was 13.6 L h^−1 m^−2 and the “CL, mean” value ([5]; 2-h infusion, 3.7 mg m^−2, n=1) was 11.0 L h^−1 m^−2. The “t1/2, mean” value ([5]; 2-h infusion, 3.7 mg m^−2, n=1) was 2.84 h, the “CL, mean” value ([5]; 2-h infusion, 7.4 mg m^−2, n=1) was 7.61 L h^−1 m^−2 and the “CL, mean” value ([5]; 2-h infusion, 14.8 mg m^−2, n=1) was 13.8 L h^−1 m^−2. For the same molecule, the “CL, mean” value [5, 6] was 13.6 ^c L h^−1 m^−2, the “t1/2, mean” value [5, 6] was 2.84 ^c h and the “CL, mean” value [5, 7] was 26.8 L h^−1 m^−2. The “t1/2, mean” value [5, 7] was 2.86 h, the “CL, mean” value ([5]; 2-h infusion, 50 mg m^−2, n=15) was 16.1 L h^−1 m^−2 and the “CL, mean” value ([5]; 2-h infusion, 58 mg m^−2, n=4) was 18.9 L h^−1 m^−2. For the same molecule, the “Cmax, mean” value ([5]; 8-h infusion, 7.4 mg m^−2, n=6) was 0.0955 µg/mL, the “Cmax, mean” value ([5]; 8-h infusion, 14.8 mg m^−2, n=3) was 0.0958 µg/mL and the “Cmax, mean” value ([5]; 8-h infusion, 41.4 mg m^−2, n=2) was 0.429 µg/mL. For the same molecule, the “dose dependence of CL” value ([5]; based on the PK findings) was “dose-independent”, the half-life [5] was 1.4 to 3.3 h and the AUC ([5]; 1.85 mg m^−2, AUC(l), 2-h infusion, 1.85 mg m^−2, n=1) was 0.136 µg·h/mL. For the same molecule, the AUC ([5]; 1.85 mg m^−2, AUC(tf), 2-h infusion, 1.85 mg m^−2, n=1) was 0.135 µg·h/mL, the Cmax ([5]; 1.85 mg m^−2, Cmax, 2-h infusion, 1.85 mg m^−2, n=1) was 0.0625 µg/mL and the AUC ([5]; 7.4 mg m^−2, AUC(l), 2-h infusion, 7.4 mg m^−2, n=1) was 0.975 µg·h/mL. The AUC ([5]; 7.4 mg m^−2, AUC(tf), 2-h infusion, 7.4 mg m^−2, n=1) was 0.974 µg·h/mL, the AUC ([5]; 7.4 mg m^−2, AUC(tf), 8-h infusion, 7.4 mg m^−2, n=6) was 0.687 µg·h/mL and the AUC ([5]; 7.4 mg m^−2, AUC(tf), 24-h infusion, 7.4 mg m^−2, n=4) was 0.877 µg·h/mL. It also gave a Cmax ([5]; 7.4 mg m^−2, Cmax, 2-h infusion, 7.4 mg m^−2, n=1) of 0.353 µg/mL, a Cmax ([5]; 7.4 mg m^−2, Cmax, 24-h infusion, 7.4 mg m^−2, n=4) of 0.0414 µg/mL and a Tmax ([5]; 7.4 mg m^−2, Tmax, median, 8-h infusion, 7.4 mg m^−2, n=4) of 4 h. The Tmax ([5]; 7.4 mg m^−2, Tmax, median, 24-h infusion, 7.4 mg m^−2, n=1) was 24 h, the AUC ([5]; 10.4 mg m^−2, AUC(tf), 24-h infusion, 10.4 mg m^−2, n=3) was 0.982 µg·h/mL and the Cmax ([5]; 10.4 mg m^−2, Cmax, 24-h infusion, 10.4 mg m^−2, n=3) was 0.0514 µg/mL. For the same molecule, the Tmax ([5]; 10.4 mg m^−2, Tmax, median, 24-h infusion, 10.4 mg m^−2, n=2) was 15 h, the AUC ([5]; 14.6 mg m^−2, AUC(tf), 24-h infusion, 14.6 mg m^−2, n=3) was 2.59 µg·h/mL and the Cmax ([5]; 14.6 mg m^−2, Cmax, 24-h infusion, 14.6 mg m^−2, n=3) was 0.161 µg/mL. For the same molecule, the Tmax ([5]; 14.6 mg m^−2, Tmax, median, 24-h infusion, 14.6 mg m^−2, n=2) was 15 h, the half-life ([5]; 14.8 mg m^−2) was 2.78 h and the AUC ([5]; 14.8 mg m^−2, AUC(l), 2-h infusion, 14.8 mg m^−2, n=1) was 1.06 µg·h/mL. For the same molecule, the AUC ([5]; 14.8 mg m^−2, AUC(tf), 2-h infusion, 14.8 mg m^−2, n=1) was 1.06 µg·h/mL, the AUC ([5]; 14.8 mg m^−2, AUC(tf), 8-h infusion, 14.8 mg m^−2, n=3) was 0.702 µg·h/mL and the Cmax ([5]; 14.8 mg m^−2, Cmax, 2-h infusion, 14.8 mg m^−2, n=1) was 0.396 µg/mL. It also gave a Tmax ([5]; 14.8 mg m^−2, Tmax, median, 8-h infusion, 14.8 mg m^−2, n=3) of 4 h, an AUC ([5]; 29.6 mg m^−2, AUC(l), 2-h infusion, 29.6 mg m^−2, n=5) of 2.44 µg·h/mL and an AUC ([5]; 29.6 mg m^−2, AUC(tf), 2-h infusion, 29.6 mg m^−2, n=5) of 2.06 µg·h/mL. The AUC ([5]; 29.6 mg m^−2, AUC(tf), 8-h infusion, 29.6 mg m^−2, n=3) was 2.3 µg·h/mL, the Cmax ([5]; 29.6 mg m^−2, Cmax, 2-h infusion, 29.6 mg m^−2, n=6) was 0.89 µg/mL and the Cmax ([5]; 29.6 mg m^−2, Cmax, 8-h infusion, 29.6 mg m^−2, n=3) was 0.333 µg/mL. For the same molecule, the Tmax ([5]; 29.6 mg m^−2, Tmax, median, 8-h infusion, 29.6 mg m^−2, n=3) was 4 h, the AUC ([5]; 41.4 mg m^−2, AUC(l), 2-h infusion, 41.4 mg m^−2, n=6) was 2.88 µg·h/mL and the AUC ([5]; 41.4 mg m^−2, AUC(tf), 2-h infusion, 41.4 mg m^−2, n=6) was 2.86 µg·h/mL. It also gave an AUC ([5]; 41.4 mg m^−2, AUC(tf), 8-h infusion, 41.4 mg m^−2, n=2) of 3.3 µg·h/mL, a Cmax ([5]; 41.4 mg m^−2, Cmax, 2-h infusion, 41.4 mg m^−2, n=6) of 1.3 µg/mL and a Tmax ([5]; 41.4 mg m^−2, Tmax, median, 8-h infusion, 41.4 mg m^−2, n=1) of 4 h. It also gave an AUC ([5]; 50 mg m^−2, AUC(l), 2-h infusion, 50 mg m^−2, n=15) of 3.94 µg·h/mL, an AUC ([5]; 50 mg m^−2, AUC(tf), 2-h infusion, 50 mg m^−2, n=15) of 3.91 µg·h/mL and an AUC ([5]; 50 mg m^−2, AUC(tf), 8-h infusion, 50 mg m^−2, n=2) of 3.67 µg·h/mL. It also gave a Cmax ([5]; 50 mg m^−2, Cmax, 2-h infusion, 50 mg m^−2, n=15) of 1.81 µg/mL, a Cmax ([5]; 50 mg m^−2, Cmax, 8-h infusion, 50 mg m^−2, n=2) of 0.475 µg/mL and a Tmax ([5]; 50 mg m^−2, Tmax, median, 8-h infusion, 50 mg m^−2, n=2) of 8 h. For the same molecule, the AUC ([5]; 58 mg m^−2, AUC(l), 2-h infusion, 58 mg m^−2, n=4) was 3.37 µg·h/mL, the AUC ([5]; 58 mg m^−2, AUC(tf), 2-h infusion, 58 mg m^−2, n=4) was 3.36 µg·h/mL and the Cmax ([5]; 58 mg m^−2, Cmax, 2-h infusion, 58 mg m^−2, n=4) was 1.46 µg/mL. It also gave a Tmax ([5]; Tmax, after the initiation of the 2-h infusion, 35 patients in Part 1, across doses) of 1 to 2 h, a Tmax ([5]; Tmax, after the start of the 8-h infusion, 16 patients) of 4 to 8 h and a Tmax ([5]; Tmax, after the start of the 24-h infusion) of 6 to 24 h.
